# According to ChEMBL document CHEMBL1201862, “PubChem BioAssay data set” (2004):
#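 48-hour exposure; five concentrations; linearly interpolated endpoints. The concentration for 50% growth inhibition is given as GI50.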 Active and inactive are the calls of the source. No stated cut-off is given here; in the data, active = GI50 up to about 1.1 µM and inactive = higher.
# Experiments:
# Test in all cases: growth of human tumour cells (NCI), 48 h
# [1] = system: MCF7
# [2] = system: A498
# [3] = system: M14
# [4] = system: MDA-MB-435
# [5] = system: SK-MEL-2
# [6] = system: MDA-MB-231
# [7] = system: UACC-257
# [8] = system: Malme-3M
# [9] = system: U-251
# [10] = system: MOLT-4
# [11] = system: BT-549
# [12] = system: NCI/ADR-RES
# [13] = system: RPMI-8226
# [14] = system: LOX IMVI
# [15] = system: SNB-75
# [16] = system: SK-OV-3
# [17] = system: OVCAR-5
# [18] = system: KM12
# [19] = system: UACC-62
# [20] = system: NCI-H226
Structure (SMILES),GI50 [1],GI50 [2],GI50 [3],GI50 [4],GI50 [5],GI50 [6],GI50 [7],GI50 [8],GI50 [9],GI50 [10],GI50 [11],GI50 [12],GI50 [13],GI50 [14],GI50 [15],GI50 [16],GI50 [17],GI50 [18],GI50 [19],GI50 [20]
Cn1c(=O)c2nc(SCc3ccccn3)[nH]c2n(C)c1=S,> 100 µM (inactive),23.3 µM (inactive),> 100 µM (inactive),> 100 µM (inactive),52.8 µM (inactive),76.6 µM (inactive),> 100 µM (inactive),> 100 µM (inactive),46.7 µM (inactive),> 100 µM (inactive),> 100 µM (inactive),90.4 µM (inactive),> 100 µM (inactive),> 100 µM (inactive),19.5 µM (inactive),27.7 µM (inactive),> 100 µM (inactive),> 100 µM (inactive),34 µM (inactive),63.7 µM (inactive)
O=C1c2ccccc2C(=O)c2c(NCC(O)CO)ccc(NCC(O)CO)c21 (stereo unspecified),21.3 µM (inactive),> 100 µM (inactive),,> 100 µM (inactive),24.4 µM (inactive),97.9 µM (inactive),> 100 µM (inactive),91.2 µM (inactive),61.2 µM (inactive),32.2 µM (inactive),75.7 µM (inactive),> 100 µM (inactive),65 µM (inactive),28.3 µM (inactive),56.4 µM (inactive),40.9 µM (inactive),> 100 µM (inactive),,51.5 µM (inactive),51.4 µM (inactive)
Oc1ccc2ccccc2c1-c1nnc(CCCCCCCCc2nnc(-c3c(O)ccc4ccccc34)o2)o1,8.95 µM (inactive),16.5 µM (inactive),1.34 µM (inactive),4.24 µM (inactive),5.87 µM (inactive),3.52 µM (inactive),10.2 µM (inactive),3.1 µM (inactive),1.05 µM (active),0.449 µM (active),23.1 µM (inactive),1.44 µM (inactive),2.72 µM (inactive),1.01 µM (active),21.4 µM (inactive),18.1 µM (inactive),6.32 µM (inactive),27.2 µM (inactive),7.64 µM (inactive),10.4 µM (inactive)
NC(=O)N/N=C(\Cc1nc2ccc(Cl)cc2nc1O)C(=O)Nc1ccc(Cl)cc1Cl,> 100 µM (inactive),> 100 µM (inactive),> 100 µM (inactive),> 100 µM (inactive),> 100 µM (inactive),> 100 µM (inactive),> 100 µM (inactive),> 100 µM (inactive),> 100 µM (inactive),> 100 µM (inactive),> 100 µM (inactive),> 100 µM (inactive),> 100 µM (inactive),> 100 µM (inactive),> 100 µM (inactive),> 100 µM (inactive),> 100 µM (inactive),> 100 µM (inactive),> 100 µM (inactive),87.1 µM (inactive)
Cc1ccnc2[nH]c(-c3ccccc3)cc(=O)c12,0.0398 µM (active),> 10 µM (inactive),0.00658 µM (active),0.1 µM (active),,0.0912 µM (active),0.0113 µM (active),0.0092 µM (active),0.00552 µM (active),0.0132 µM (active),19 µM (inactive),0.00451 µM (active),0.00731 µM (active),0.0149 µM (active),0.00621 µM (active),0.0136 µM (active),0.643 µM (active),0.00705 µM (active),0.00535 µM (active),0.0246 µM (active)
C[C@]12CC[C@@H]3c4cc(Br)c(O)c(Br)c4CC[C@H]3[C@@H]1CC(Br)C2=O (stereo partly specified),5.61 µM (inactive),23.3 µM (inactive),7.03 µM (inactive),4.13 µM (inactive),12.2 µM (inactive),6.62 µM (inactive),15.8 µM (inactive),15.2 µM (inactive),3.3 µM (inactive),2.53 µM (inactive),5 µM (inactive),4.63 µM (inactive),,3.57 µM (inactive),12.1 µM (inactive),14.6 µM (inactive),22.1 µM (inactive),3.57 µM (inactive),3.59 µM (inactive),6.5 µM (inactive)
CC(C)NCC(O)c1cc(OCc2ccccc2)c(OCc2ccccc2)cc1NC(=O)CCC(=O)O (stereo unspecified),5.69 µM (inactive),11 µM (inactive),1.45 µM (inactive),5.05 µM (inactive),1.45 µM (inactive),8.15 µM (inactive),13.4 µM (inactive),15.2 µM (inactive),5.04 µM (inactive),3.64 µM (inactive),15.8 µM (inactive),12.9 µM (inactive),2.81 µM (inactive),1.57 µM (inactive),10.6 µM (inactive),14.9 µM (inactive),16.7 µM (inactive),4.28 µM (inactive),3.25 µM (inactive),15.7 µM (inactive)
Clc1ccc(-c2cc(-c3nc4ccccc4[nH]3)no2)cc1,15 µM (inactive),18.9 µM (inactive),18.4 µM (inactive),17 µM (inactive),18.7 µM (inactive),18.6 µM (inactive),18.8 µM (inactive),19.3 µM (inactive),,16.1 µM (inactive),21.6 µM (inactive),23.6 µM (inactive),24.3 µM (inactive),19.5 µM (inactive),18.3 µM (inactive),18.6 µM (inactive),18.7 µM (inactive),20.8 µM (inactive),14.6 µM (inactive),27.4 µM (inactive)
CC(=O)N(CCc1ccccc1)C(C#N)c1ccccc1 (stereo unspecified),> 100 µM (inactive),91.2 µM (inactive),> 100 µM (inactive),> 100 µM (inactive),> 100 µM (inactive),> 100 µM (inactive),> 100 µM (inactive),> 100 µM (inactive),> 100 µM (inactive),> 100 µM (inactive),> 100 µM (inactive),> 100 µM (inactive),> 100 µM (inactive),> 100 µM (inactive),10.5 µM (inactive),> 100 µM (inactive),> 100 µM (inactive),> 100 µM (inactive),> 100 µM (inactive),> 100 µM (inactive)
CN(C)CCNc1c([N+](=O)[O-])sc2ccc(Cl)cc12,7.36 µM (inactive),23.3 µM (inactive),> 100 µM (inactive),88.5 µM (inactive),33.5 µM (inactive),17.3 µM (inactive),,26.9 µM (inactive),18.3 µM (inactive),2.37 µM (inactive),32.3 µM (inactive),11.1 µM (inactive),> 100 µM (inactive),3.49 µM (inactive),14.5 µM (inactive),25.5 µM (inactive),> 100 µM (inactive),> 100 µM (inactive),14 µM (inactive),15.8 µM (inactive)
Cc1cc(N(CCC#N)CCC#N)ccc1C(/N=N/c1ccc([N+](=O)[O-])cc1)=N\NC(=O)c1ccccc1,25.8 µM (inactive),25.9 µM (inactive),86.9 µM (inactive),7.82 µM (inactive),67 µM (inactive),58.7 µM (inactive),61.8 µM (inactive),56.9 µM (inactive),42.3 µM (inactive),45.2 µM (inactive),37.5 µM (inactive),51.5 µM (inactive),75.9 µM (inactive),,48.4 µM (inactive),49.5 µM (inactive),> 100 µM (inactive),40.8 µM (inactive),31 µM (inactive),39.1 µM (inactive)
O=C(/C=C/c1ccccc1)C[C@@H](O)C[C@@H]1CC=CC(=O)O1,3.94 µM (inactive),16.7 µM (inactive),5.81 µM (inactive),4.86 µM (inactive),14.2 µM (inactive),14.4 µM (inactive),13.6 µM (inactive),14.2 µM (inactive),8.69 µM (inactive),2.65 µM (inactive),11.4 µM (inactive),20.5 µM (inactive),2.61 µM (inactive),1.95 µM (inactive),16.7 µM (inactive),14.3 µM (inactive),20 µM (inactive),4.67 µM (inactive),8.97 µM (inactive),> 100 µM (inactive)
Cc1nc(C)c(N2CCNCC2)c(O)n1,> 100 µM (inactive),> 100 µM (inactive),> 100 µM (inactive),> 100 µM (inactive),,> 100 µM (inactive),> 100 µM (inactive),> 100 µM (inactive),> 100 µM (inactive),> 100 µM (inactive),> 100 µM (inactive),> 100 µM (inactive),> 100 µM (inactive),> 100 µM (inactive),> 100 µM (inactive),> 100 µM (inactive),,> 100 µM (inactive),> 100 µM (inactive),> 100 µM (inactive)
COc1cc(C(=O)O)ccc1OS(=O)(=O)O,> 100 µM (inactive),> 10 µM (inactive),> 100 µM (inactive),> 100 µM (inactive),> 100 µM (inactive),> 100 µM (inactive),> 100 µM (inactive),> 100 µM (inactive),> 100 µM (inactive),> 100 µM (inactive),> 100 µM (inactive),> 100 µM (inactive),> 100 µM (inactive),> 100 µM (inactive),> 100 µM (inactive),> 100 µM (inactive),> 100 µM (inactive),> 100 µM (inactive),> 100 µM (inactive),> 100 µM (inactive)
